Results on one sequence are retold here after patent US7875587B2, “Peptide analogues of GIP for treatment of diabetes, insulin resistance and obesity” (UUTECH Limited, priority 2004, dated 2011).

No end group written: not given here.

For one test, the system named is BRIN-BD11 cells. The test is described as follows: GIP-stimulated insulin release from BRIN-BD11 cells (antagonism). In kind it is cell-based. Particulars: 5.6 mM glucose, native GIP 10^-7 M. The method, then: Tissue culture. […] Cells were maintained in sterile tissue culture flasks (Corning Glass Works, Sunderland, UK) at 37° C. in an atmosphere of 5% CO2 and 95% air using an LEEC incubator (Laboratory Technical Engineering, Nottingham, UK). Acute studies of insulin release. Insulin release from BRIN-BD11 cells was determined using cell monolayers ([…]. et al., 1996, Diabetes 45:1132-1140). Cells were harvested with the aid of trypsin/EDTA (Gibco), seeded into 24-multiwell plates (Nunc, Roskilde, Denmark) at a density of 1.0×10^5 cells per well, and allowed to attach overnight at 37° C.

The test system of test [1] is obese diabetic ob/ob mice. The test is described as follows: Acute in vivo effects of (Pro3)GIP in obese diabetic ob/ob mice. On the set-up: species or system mouse. The method, then: Acute in vivo effects of (Pro^3)GIP administration in obese diabetic ob/ob mice. Plasma glucose and insulin responses were evaluated using 8- to 12-week old obese diabetic ob/ob mice following intraperitoneal (i.p.) injection of native GIP, (Pro^3)GIP (25 nmol/kg body weight) or saline (0.9% (w/v) NaCl; control) immediately following the combined injection of GIP (25 nmol/kg body weight) with glucose (18 mmol/kg body weight). All test solutions were administered in a final volume of 8 ml/kg body weight. Blood samples were collected from the cut tip of the tail of conscious mice into chilled fluoride/heparin microcentrifuge tubes (Sarstedt, Numbrecht, Germany) immediately prior to injection and at 15, 30 and 60 minutes post injection. Blood samples were immediately centrifuged using a Beckman microcentrifuge (Beckman Instruments, UK) for 30 seconds at 13000 g and stored at −20° prior to glucose and insulin determinations.
Acute in vivo effects of (Pro^3)GIP on plasma glucose and insulin responses to feeding in obese diabetic ob/ob mice. Plasma glucose and insulin responses were evaluated using 8- to 12-week old ob/ob mice where food was withdrawn for an 18-hour period prior to intraperitoneal injection of saline (0.9% (w/v) NaCl; control) or (Pro^3)GIP (25 nmol/kg body weight). Following injection, the mice were allowed to re-feed for 15 minutes. Blood samples were collected from the cut tip of the tail of conscious mice into chilled fluoride/heparin microcentrifuge tubes (Sarstedt, Numbrecht, Germany) immediately prior to injection and at 15, 30, 60 and 120 minutes post injection. Blood samples were immediately centrifuged using a Beckman microcentrifuge (Beckman Instruments, UK) for 30 seconds at 13000 g and stored at −20° prior to glucose and insulin determinations.
Determination of HbA1c, plasma glucose and insulin concentrations. HbA1c was measured in whole blood by ion-exchange high-performance liquid chromatography using the Menari HA-8140 kit (BIOMEN, Berkshire, UK). Plasma glucose was assayed by an automated glucose oxidase procedure using a Beckman Glucose Analyzer II (Stevens, J. F., 1971, Clinica Chemica Acta 32:199-201) and plasma insulin was determined by RIA (Flatt, P. R. et al., 1981, Diabetologia 20:573-577). Incremental areas under plasma glucose and insulin curves (AUC) were calculated using a computer generated program (CAREA) employing the trapezoidal rule (Burington, R. S., 1973, Handbook of Mathematical Tables and Formulae, New York, McGraw Hill) with baseline subtraction.

The test system of another test is normal mice. The test is described as follows: Chronic (11 days) (Pro3)GIP administration in normal mice. In kind it is in vivo, mouse. As for the experimental part: Effects of chronic (Pro^3)GIP administration on plasma glucose, insulin and glycated HbA1c in obese diabetic ob/ob mice and normal mice. Obese diabetic ob/ob mice and normal control mice aged 8-12 weeks were randomly divided into groups which received once daily subcutaneous injections (17:00 h) of either saline (0.9% w/v NaCl) or (Pro^3)GIP (25 nmol/kg body weight in saline). After 11 days, treatment was ceased. Food intake and body weight were recorded daily. Blood samples were collected from the cut tip of the tail of conscious mice into chilled fluoride/heparin coated glucose microcentrifuge tubes (Sarstedt, Numbrecht, Germany). Blood samples were immediately centrifuged using a Beckman microcentrifuge (Beckman Instruments, UK) for 30 seconds at 13000 g prior to glucose, insulin and HbA1c determinations.
Effects of chronic treatment with (Pro^3)GIP on glucose tolerance in ob/ob mice and normal mice. Plasma glucose and insulin concentrations were measured following intraperitoneal administration of glucose (18 mmol/kg body weight) in ob/ob and normal mice treated with either saline (0.9% w/v NaCl) or (Pro^3)GIP (25 nmol/kg body weight/day) for 11 days. […]
Determination of HbA1c, plasma glucose and insulin concentrations. HbA1c was measured in whole blood by ion-exchange high-performance liquid chromatography using the Menari HA-8140 kit (BIOMEN, Berkshire, UK). […]

The mark [2] stands for this setting: 25 nmol/kg i.p., 15 min re-feeding after 18 h fast.

Consider “YAPGTFISDYSIAMDKIHQQDFVNWLLAQKGKKNDWKHNITQ [(Pro^3)GIP]”, for which the “inhibition of GIP-stimulated insulin secretion” value in the test with BRIN-BD11 cells was “inhibited in dose-dependent fashion”. The “antagonism of insulin-releasing action of GIP and improvement of glucose tolerance” value in test [1] (25 nmol/kg i.p. with GIP 25 nmol/kg and glucose 18 mmol/kg) is recorded as “completely antagonised”. For the same sequence, in test [1] (25 nmol/kg i.p. with GIP and glucose), the “glycemic excursion compared with glucose alone” value is on record as “worse than when glucose was administered alone”. Moreover, in test [1] (setting [2]), the “glycemic excursion after feeding” value is “worsened” and the “insulin response to feeding” value was “decreased”. The “glucose tolerance in normal mice after cessation” value with normal mice (9 days after cessation of treatment) is on record as “reversed 9 days after cessation of treatment”. For the same sequence, the “glucose tolerance in normal mice” value with normal mice (daily treatment for 11 days) is given as “marked deterioration of glucose tolerance”.
